Experiments:
[1] = system: murine bone marrow-derived macrophages; assay: area under cytotoxicity dose-response curve (AUC (% cytotoxicity x dose, relative)); higher = more cytotoxic; settings: duration: 6 days; dose range: 0.13-80 uM, 8 points
In short: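 Primary murine bone marrow-derived macrophages in opaque 384-well plates were exposed to an 8-point, 2.5-fold dilution series (final 80–0.13 μM) for 6 days at 37 °C in 5% CO2. Viability was read with Promega's CellTiter-Glo luminescence assay, and percent cytotoxicity was normalised to vehicle and positive control wells. Cytotoxicity is reported as the area under the dose–response curve, calculated in GraphPad Prism version 10.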

[2] = system: Mycobacterium tuberculosis CDC1551 (intracellular, in murine BMDM); assay: area under intracellular growth-inhibition dose-response curve (AUC (% inhibition x dose, relative)); higher = more potent; settings: duration: 6 days; dose range: 0.13-80 uM, 8 points
In short: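 Macrophages derived from primary murine bone marrow were infected for 1 h at multiplicity of infection 1 with luciferase-expressing M. tuberculosis CDC1551, then treated for 6 days at final concentrations of 80–0.13 μM. Bright-Glo luciferin signal, normalised to a reference drug control and the lowest-concentration wells, gave the growth readout. Area under the growth-inhibition dose–response curve was then calculated in GraphPad Prism.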

Structure (SMILES) | area under cytotoxicity dose-response curve [1] | area under intracellular growth-inhibition dose-response curve [2]
CC(C)(C)C(=O)N1CCN(c2ccc(NC(=O)c3ccc([N+](=O)[O-])o3)cc2)CC1 | 104 | 105
Cc1ccc(/C(O)=C/c2nc3ccccc3oc2=O)cc1 | < 0 | 22.9
CCC(=O)N1CCN(c2ccc(NC(=O)c3ccc([N+](=O)[O-])o3)cc2Cl)CC1 | 30.3 | 58.5
O=C(OCC(=O)C12CC3CC(CC(C3)C1)C2)c1ccc(CO)cc1 | < 0 | 124
O=C(Nc1ccc(N2CCN(Cc3ccccc3F)CC2)cc1)c1ccc([N+](=O)[O-])o1 | 5.12 | 186
c1ccc(-c2noc(CC3CCCCC3)n2)nc1 | 5.13 | 200
CC(=O)c1cc(NC(=O)c2ccc(C)cc2)c(=O)oc1/C=C/N(C)C | 37.1 | 115
CCCN1CNC(=S)N(c2ccc(C(=O)OCC)cc2)C1 | 9 | 83.8
Nc1nc(Cl)nc2c1ncn2[C@@H]1O[C@H](CO)[C@@H](O)[C@H]1O | 81.9 | 205
O=C(COc1ccc(/C=N/NC(=O)c2ccncc2)cc1)Nc1ccccc1 | 34.4 | 266
Cc1ccc(/C=N/NC(=O)c2ccncc2)o1 | 78.6 | 213
O=C1CN(C(=O)COC(=O)c2ccc(Br)o2)c2ccccc2N1 | 23.5 | 58.2
CCC(=O)NC(=S)Nc1ccc(NC(=S)NC(=O)c2ccc(C)cc2)cc1 | 11.9 | 265
Cn1c(COc2ccc(Cl)cc2)nnc1SCC(=O)NC1CC1 | 96 | 24.4
CN(C)c1nc(-c2ccccn2)nnc1-c1ccccc1 | 120 | 149
O=C(COC(=O)c1ccccc1NCCO)NCC1CCCCC1 | 58.4 | 151
CCOC(=O)c1cnc(-n2nc(C)cc2C)nc1NCCc1ccccc1 | 21.7 | 247
NC(=S)NN=C1Cc2cccc3cccc1c23 | 58.9 | 263
Brc1ccc(-[n+]2c(-c3ccccc3)cc(-c3ccccc3)cc2-c2ccccc2)cc1.[O-][Cl+3]([O-])([O-])[O-] | 14.7 | 70.1
NC(=S)N/N=C/c1ccc(-c2cccc([N+](=O)[O-])c2)o1 | 51.4 | 206
O=C(N/N=C/c1c(F)c(F)c(F)c(F)c1F)c1cccc(S(=O)(=O)N2CCOCC2)c1 | 128 | 45.4
CCCC12CN3CCN(CC(C3)/C1=N\NC(=O)c1ccncc1)C2 | 28.1 | 233
COc1cc(/C=N/NC(N)=S)ccc1OCC(=O)Nc1ccc(C)c(C)c1 | 10.1 | 242
O=C(COC(=O)Cc1ccc(Cl)cc1)NCc1cccs1 | 18.4 | 37.1
Cc1ccccc1OCCC(=O)NNC(=O)c1ccccc1F | 17.3 | 106
O=C(NNC(=O)c1cc2ccccc2o1)c1ccncc1 | 11.1 | 135

Source: the supplement of paper PMC11997997
